In US11123340B2, “Small-molecule UT-A-selective urea transport inhibitors” (The Regents of the University of California, priority 2014, dated 2021):

What was measured:
[1] = In vitro metabolic stability in rat hepatic microsomes; type: in vitro ADME; conditions: at 60 min, 5 μM, NADPH
Description: As described (see, e.g., Snyder et al. (2011) J Med Chem. 54, 5468-5477), compounds (each 5 μM) were incubated for specified times at 37° C. with rat liver microsomes (1 mg protein/mL; Sigma-Aldrich, St. Louis, Mo.) in potassium phosphate buffer (100 mM) containing 1 mM NADPH. The mixture was then chilled on ice, and 0.5 mL of ice-cold EtOAc was added. Samples were centrifuged for 15 min at 3,000 rpm, the supernatant evaporated to dryness, and the residue was dissolved in 100 μl mobile phase (acetonitrile: water [3:1], containing 0.1% formic acid) for LC/MS. Reverse-phase HPLC separations were carried out using a XTERRA MS C18 column (2.1 mm×100 mm, 3.5 m) equipped with a solvent delivery system (Waters model 2695, Milford, Mass.). The solvent system consisted of a linear gradient from 5 to 95% acetonitrile containing 0.1% formic acid, run over 16 min (0.2 mL/min flow rate).
In vitro metabolic stability was measured by LC/MS after incubation with rat hepatic microsomes and NADPH.

[2] = tested on: MDCK cell monolayers; test: Inhibitor permeability across MDCK cell monolayers (LC/MS); type: in vitro ADME, canine; conditions: computed from surface-to-volume considerations
Description: UT-A1 expressing MDCK cells were grown on 12-mm diameter collagen-coated Transwell inserts (0.4 μm pore size; Costar, Costar, N.Y.) to form tight monolayers (resistance>500 Ωcm^2), as described (see, e.g., Levin et al. (2007) FASEB J. 21, 551-563). Urea flux in the basolateral-to-apical direction was measured in response to a 15 mM urea gradient in which PBS containing forskolin (10 μM), with or without UT-A1 inhibitor and 0.7 mM phloretin, was added to both the apical-facing (0.2 mL) and basal-facing (2 mL) surfaces. After 30 min the basal-facing solution was replaced by PBS containing test compound+15 mM urea. Apical fluid samples (5 μL) were collected at specified times for enzymatic assay of urea (QUANTICHROME Urea Assay Kit; BioAssay Systems, Hayward, Calif.). To measure inhibitor permeability across MDCK cell layers, compounds (20 μM) were added on the basal-facing surface and fluid samples (20 μL) from the apical-facing surface were collected at different time points and analyzed by LC/MS.
(§1) To further evaluate the potential site of inhibitor action, the kinetics of UT-A1 inhibition was measured by assay of UT-A1 inhibition at different times after compound addition. […] To assess inhibitor membrane permeability transport of UTAinh-E02 and UTAinh-F11 across MDCK monolayers grown on porous filters by LC/MS was measured. Transport of UTAinh-F11 was much faster than that of UTAinh-E02 (FIG. 3C, right lower panel), with computed transepithelial permeability coefficients of […] and 1.1×10^−5 cm/s, respectively. From surface-to-volume considerations, the equilibration times were computed of UTAinh-E02 and UTAinh-F11 to be 250 and 14 s, respectively, in MDCK cells, which are consistent with intracellular sites of action of both inhibitors.

[3] = biological target: T1, rat UT-A1 (Rattus norvegicus, UniProt Q62668); test: In vitro functional studies of UT-A1 inhibition (reversibility, urea competition, kinetics); type: cell-based; conditions: for Mechanism of inhibition of urea transport: urea concentration-dependence of apparent IC50
T1 construct: expressed in transfected cells; host or cells: MDCK cells stably co-expressing rat UT-A1, human AQP1 and YFP-H148Q/V163S
T1 sequence (Q62668 1-929): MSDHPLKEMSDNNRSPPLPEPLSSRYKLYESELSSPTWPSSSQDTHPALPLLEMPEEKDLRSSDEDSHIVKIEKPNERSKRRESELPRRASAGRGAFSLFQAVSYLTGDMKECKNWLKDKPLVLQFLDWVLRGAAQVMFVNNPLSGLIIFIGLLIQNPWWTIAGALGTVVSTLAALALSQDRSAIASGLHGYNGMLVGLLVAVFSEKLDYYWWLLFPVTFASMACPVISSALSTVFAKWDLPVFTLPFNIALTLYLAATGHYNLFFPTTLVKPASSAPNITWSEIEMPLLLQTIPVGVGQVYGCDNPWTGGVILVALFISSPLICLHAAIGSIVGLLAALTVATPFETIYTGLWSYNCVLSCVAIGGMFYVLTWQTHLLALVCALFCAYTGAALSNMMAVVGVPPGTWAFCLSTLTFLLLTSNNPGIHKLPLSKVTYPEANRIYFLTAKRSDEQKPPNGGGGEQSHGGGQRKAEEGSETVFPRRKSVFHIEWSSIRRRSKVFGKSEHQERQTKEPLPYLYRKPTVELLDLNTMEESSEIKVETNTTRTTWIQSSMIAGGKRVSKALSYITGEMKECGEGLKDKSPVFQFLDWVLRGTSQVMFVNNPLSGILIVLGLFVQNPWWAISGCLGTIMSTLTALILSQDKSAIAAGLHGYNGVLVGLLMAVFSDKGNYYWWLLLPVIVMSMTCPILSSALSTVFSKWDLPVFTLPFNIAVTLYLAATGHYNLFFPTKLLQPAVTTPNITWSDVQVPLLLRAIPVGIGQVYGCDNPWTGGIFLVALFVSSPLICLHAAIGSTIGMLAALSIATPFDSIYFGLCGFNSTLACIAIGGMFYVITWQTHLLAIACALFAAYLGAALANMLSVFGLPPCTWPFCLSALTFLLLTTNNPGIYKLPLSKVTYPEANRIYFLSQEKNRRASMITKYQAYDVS
Description: Reversibility of UT-A1 inhibition was tested by pre-incubating MDCK cells expressing rat UT-A1, YFP-H148Q/V163S and AQP1 with inhibitors for 15 min (at 3 μM) and then washing the cells with PBS prior to assay. The urea concentration-dependence of UT-A1 inhibition was studied from inhibitor concentration-response data using different of urea gradients at zero initial intracellular urea concentration, or after preincubation of cells with different concentrations of urea for 10 min prior to a 1,600 mM urea gradient. The kinetics of UT-A1 inhibition was measured by adding inhibitors (3 μM) at different time points (0 to 10 min) prior to assay.
Inhibitor reversibility was studied by incubation of the UT-A1-expressing cells with compounds for 15 min and washing, followed by assay of UT-A1 inhibition. UT-A1 urea transport after inhibitor washout was the same as before inhibitor addition for all compounds (FIG. 3A), indicating full reversibility. Inhibitor competition with urea, as might occur by steric hindrance if the inhibitor and urea occupied physically overlapping sites on the UT-A1 protein, was studied from the urea concentration-dependence of apparent inhibitor IC50. Studies were done with zero urea inside cells initially and different urea concentrations outside, and with different urea concentrations inside cells initially and the same inward urea gradient.
as §1, with “From surface-to-volume considerations, the equilibration times were computed of UTAinh-E02 and UTAinh-F11 to be 250 and 14 s, respectively, in MDCK cells, which are consistent with intracellular sites of action of both inhibitors.” left out

Row | metabolism [1] | equilibration time in MDCK cells [2] | Kinetics of UT-A1 inhibition ([3]; 3 μM inhibitor, different times after addition) | Mechanism of inhibition of urea transport [3] | SMILES
1 | ~50% | 250 s | occurred over minutes | non-competitive | CC(=O)Nc1ccc(-c2csc(-c3c[nH]c4ccccc34)n2)cc1 [UTA1inh-E02, N-(4-(2-(1H-indol-3-yl)thiazol-4-yl)phenyl)acetamide]
2 | ~50% | 14 s |  | non-competitive | COc1ccc(C)cc1S(=O)(=O)Nc1ccc(Cl)c(N2CCCS2(=O)=O)c1 [UTA1inh-F11, N-[4-Chloro-3-(1,1-dioxido-1,2-thiazolidin-2-yl)phenyl]-2-methoxy-5-methylbenzene-sulfonamide]
